Reference: patent US12318403B2, “2′3′-cyclic dinucleotides and prodrugs thereof” (INSTITUTE OF ORGANIC CHEMISTRY AND BIOCHEMISTRY ASCR, V.V.I., priority 2019, dated 2025)
pEC50: −log10 of the molar value. Like-named read-outs stand apart in the source and are kept apart here.

What was measured:
[1] = target: T1, human wild type STING (WT STING) (Homo sapiens, UniProt Q86WV6, H232R); test: Digitonin assay using 293T wtSTING-FL reporter cells; format: cell-based; conditions: 293T wtSTING-FL cells; compounds in Digitonin buffer 30 minutes, then 5 hours in medium; ISRE firefly luciferase
[2] = target: T2, AQ human STING (G230A-R293Q) (Homo sapiens, UniProt Q86WV6, G230A/H232R/R293Q); test: Differential Scanning Fluorimetry with AQ STING; format: binding; conditions: thermal shift vs STING apoprotein; 150 μM CDN; truncated AQ STING (residues 140-343)
T2 construct: truncated human WT STING or AQ STING (amino acid residues 140-343); 8xHis (N, cleaved yes); SUMO (N, cleaved yes); made in house; host or cells: E. coli Rosetta-gami B (DE3)

[3] = test system: peripheral blood mononuclear cell (PBMC); test: Peripheral blood mononuclear cell assay; conditions: PBMC, average of one to four donors
human WT STING = target: T3, human WT STING (Homo sapiens, UniProt Q86WV6, H232R); test: Differential Scanning Fluorimetry with WT STING; format: binding; conditions: thermal shift vs STING apoprotein; 150 μM CDN; truncated WT STING (residues 140-343)
T3 construct: truncated human WT STING or AQ STING (amino acid residues 140-343); 8xHis (N, cleaved yes); SUMO (N, cleaved yes); made in house; host or cells: E. coli Rosetta-gami B (DE3)

[4] = target: T1, human wild type STING (WT STING); test: 293T WT STING standard reporter assay; format: cell-based; conditions: 293T wtSTING-FL cells; standard reporter assay without digitonin; 7 hours; ISRE firefly luciferase; read-out: 293T WT STING EC50

T1 sequence (Q86WV6 whole entry H232R, the tested form may be a part): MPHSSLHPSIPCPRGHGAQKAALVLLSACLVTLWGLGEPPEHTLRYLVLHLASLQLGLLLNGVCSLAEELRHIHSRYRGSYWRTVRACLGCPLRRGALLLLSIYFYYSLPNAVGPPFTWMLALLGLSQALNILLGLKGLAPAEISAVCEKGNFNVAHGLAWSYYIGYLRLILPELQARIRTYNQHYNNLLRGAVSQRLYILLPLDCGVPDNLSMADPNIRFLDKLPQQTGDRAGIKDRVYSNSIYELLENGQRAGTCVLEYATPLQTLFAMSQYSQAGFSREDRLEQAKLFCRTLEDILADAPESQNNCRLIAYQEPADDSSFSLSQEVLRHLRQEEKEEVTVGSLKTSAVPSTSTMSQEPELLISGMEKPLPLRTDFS
T3 sequence (Q86WV6 140-343 H232R): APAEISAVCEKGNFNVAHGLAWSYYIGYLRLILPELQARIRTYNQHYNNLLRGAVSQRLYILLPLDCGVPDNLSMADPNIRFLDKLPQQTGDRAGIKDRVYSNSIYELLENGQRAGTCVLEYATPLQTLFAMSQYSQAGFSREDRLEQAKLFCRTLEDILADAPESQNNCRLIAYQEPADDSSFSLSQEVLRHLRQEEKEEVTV
T2 sequence (Q86WV6 140-343 G230A/H232R/R293Q): as the sequence (Q86WV6 140-343 H232R) above, with G91A, R154Q counted along it

pEC50 [1]: 7.92
DSF ΔTm AQ STING [2]: 27.6 °C
DSF ΔTm WT STING (human WT STING): 19.2 °C
pEC50 [4]: 6.40
SMILES: Nc1nc2c(ncn2[C@@H]2O[C@@H]3COP(=O)(S)CO[C@H]4[C@@H](F)[C@H](n5cnc6c(N)ncnc65)O[C@@H]4COP(=O)(S)O[C@@H]2[C@@H]3F)c(=O)[nH]1 (single isomer, unassigned) [Compound 17d]
pEC50 ([3]; read-out: PBMC EC50 IFN-α, compounds 1h, washed, 15 hour incubation, interferon-alpha level in medium): 4.16
pEC50 ([3]; read-out: PBMC EC50 IFN-γ, compounds 1h, washed, 15 hour incubation, interferon-gamma level in medium): 4.64
pEC50 ([3]; read-out: PBMC EC50 TNF-α, compounds 1h, washed, 15 hour incubation, tumor necrosis factor-alpha level in medium): 4.17
